Values quoted from earlier work in article PMC3910343 (Nephrology Dialysis Transplantation, 2013).

Details: oral cinacalcet

- initial half-life: ~6 h
- time to steady state: ≤ 7 days
Compound: C[C@@H](NCCCc1cccc(C(F)(F)F)c1)c1cccc2ccccc12 [cinacalcet]
